What all share (type): cell-based
Assay [1] deals with T1, F876L mutant Androgen Receptor (AR-F876L) (Homo sapiens (Human), UniProt P10275, F877L). The assay is described as follows: LNCaP-AR-F876L AG reporter assay (agonist mode). As to conditions: for Emax: read-out: LNCaP-AR-F876L AG MAX % Stim; for EC50: pEC50 = −Log10(EC50 in Molar), read-out: LNCaP-AR-F876L AG pEC50 (converted).
Assay [2] has as its target T2, wild-type Androgen Receptor (AR-wt) (Homo sapiens (Human), UniProt P10275). The assay is described as follows: LNCaP-AR-wt ANT reporter assay (antagonist mode). As to conditions: for Emax: read-out: LNCaP-AR-wt ANT MAX % Inh; for IC50: pIC50 = −Log10(IC50 in Molar), read-out: LNCaP-AR-wt ANT pIC50 (converted).
Assay [3] deals with T1, F876L mutant Androgen Receptor (AR-F876L). Put plainly: LNCaP-AR-F876L ANT reporter assay (antagonist mode). As to conditions: for Emax: read-out: LNCaP-AR-F876L ANT MAX % Inh; for IC50: pIC50 = −Log10(IC50 in Molar), read-out: LNCaP-AR-F876L ANT pIC50 (converted).
The target in assay [4] is T2, wild-type Androgen Receptor (AR-wt). Put plainly: LNCaP-AR-wt AG reporter assay (agonist mode). As to conditions: for Emax: read-out: LNCaP-AR-wt AG MAX % Stim; for EC50: pEC50 = −Log10(EC50 in Molar), read-out: LNCaP-AR-wt AG pEC50 (converted). On the technique in general: A reporter such as luciferase makes a cellular process visible.
Where [5] appears, read: agonist mode, maximum % stimulation over tested concentration range.
[6] abbreviates: antagonist mode, maximum % inhibition of R1881 control response over tested concentration range.
[7] abbreviates: maximum % stimulation (agonist response) over the tested concentration range.
The mark [8] stands for this setting: maximum % inhibition of R1881 control response over the tested concentration range.

Each structure is given as a SMILES string.

T1 sequence (P10275 whole entry F877L): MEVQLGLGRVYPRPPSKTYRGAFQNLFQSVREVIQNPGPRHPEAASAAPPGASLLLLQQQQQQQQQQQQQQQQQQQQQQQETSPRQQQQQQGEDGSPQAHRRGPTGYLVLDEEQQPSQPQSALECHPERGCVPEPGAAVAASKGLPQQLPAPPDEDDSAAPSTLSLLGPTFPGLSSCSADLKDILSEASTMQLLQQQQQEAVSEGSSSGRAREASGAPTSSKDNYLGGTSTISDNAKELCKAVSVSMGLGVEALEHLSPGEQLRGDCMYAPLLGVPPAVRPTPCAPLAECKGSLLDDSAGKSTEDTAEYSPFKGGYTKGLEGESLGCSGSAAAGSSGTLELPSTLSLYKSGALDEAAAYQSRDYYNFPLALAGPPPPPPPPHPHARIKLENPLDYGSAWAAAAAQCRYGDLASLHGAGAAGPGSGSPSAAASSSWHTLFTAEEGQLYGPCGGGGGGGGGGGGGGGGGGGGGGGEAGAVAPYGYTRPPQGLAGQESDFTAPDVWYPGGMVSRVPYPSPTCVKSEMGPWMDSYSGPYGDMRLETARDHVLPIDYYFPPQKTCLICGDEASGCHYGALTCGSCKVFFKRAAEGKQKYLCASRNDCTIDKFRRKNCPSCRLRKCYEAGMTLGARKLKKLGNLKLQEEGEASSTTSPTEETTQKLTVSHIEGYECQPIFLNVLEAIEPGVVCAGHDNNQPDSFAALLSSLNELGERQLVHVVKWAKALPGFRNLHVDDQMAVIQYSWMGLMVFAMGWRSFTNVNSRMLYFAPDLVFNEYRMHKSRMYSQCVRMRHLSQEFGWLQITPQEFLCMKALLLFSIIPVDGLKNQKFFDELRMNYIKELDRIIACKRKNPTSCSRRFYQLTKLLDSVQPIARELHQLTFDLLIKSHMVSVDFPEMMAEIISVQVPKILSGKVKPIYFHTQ
T2 sequence (P10275 whole entry): as the sequence (P10275 whole entry F877L) above, with L877F counted along it

On to `CN1CC(CNC(=O)c2ccc(N3C(=S)N(c4cnc(C#N)c(C(F)(F)F)c4)C(=O)C34CCC4)cc2)C1` [Cpd 216, 4-[6-[6-cyano-5-(trifluoromethyl)-3-pyridyl]-5-oxo-7-thioxo-6,8-diazaspiro[3.4]octan-8-yl]-N-[(1-methylazetidin-3-yl)methyl]benzamide], for which the Emax worked out at 0% in assay [1] (setting [5]), 98.8% in assay [2] (setting [6]), 98.7% in assay [3] (setting [6]) and 0.1% in assay [4] (setting [5]). In addition, the EC50 in assay [1] (agonist mode) and in assay [4] (agonist mode) was above 15100 nM in each case. For the same molecule, the IC50 in assay [2] (antagonist mode) was 1620 nM; in assay [3] (antagonist mode), 1480 nM.

Take `CC(C)(C)OC(=O)N1CCC12CC(Oc1ccc(N3C(=S)N(c4cnc(C#N)c(C(F)(F)F)c4)C(=O)C34CCC4)cn1)C2` (stereo not drawn) [Cpd 153, tert-butyl 6-[[5-[6-[6-cyano-5-(trifluoromethyl)-3-pyridyl]-5-oxo-7-thioxo-6,8-diazaspiro[3.4]octan-8-yl]-2-pyridyl]oxy]-3-azaspiro[3.3]heptane-3-carboxylate]: the EC50 in assay [1] (agonist mode) and in assay [4] (agonist mode) was above 15100 nM in each case. For the same molecule, the Emax in assay [1] (setting [7]) is -0.1%; in assay [2] (setting [8]), 101%; in assay [3] (setting [8]), 100%; in assay [4] (setting [7]) it was 0.1%. In addition, the IC50 is 398 nM in assay [2] (antagonist mode) and 339 nM in assay [3] (antagonist mode).

For the molecule `N#Cc1ncc(N2C(=O)C3(CCC3)N(c3ccc4c(ccn4C4CCNCC4)c3)C2=S)cc1C(F)(F)F` [Cpd 249, 5-[8-Oxo-5-(1-piperidin-4-yl-1H-indol-5-yl)-6-thioxo-5,7-diaza-spiro[3.4]oct-7-yl]-3-trifluoromethyl-pyridine-2-carbonitrile], the Emax amounted to 0% in assay [1] (setting [5]), 0% in assay [2] (setting [6]), 103% in assay [3] (setting [6]) and 0% in assay [4] (setting [5]). In addition, the EC50 in assay [1] (agonist mode) and in assay [4] (agonist mode) was above 15100 nM throughout. Further, the IC50 in assay [2] (antagonist mode) is 407 nM; in assay [3] (antagonist mode), 316 nM.

Take `Cc1cc(N2C(=O)C3(CCC3)N(c3ccc(CC4CCN(C)CC4)cc3)C2=S)cnc1C#N` [Cpd 238, 3-methyl-5-[8-[4-[(1-methyl-4-piperidyl)methyl]phenyl]-5-oxo-7-thioxo-6,8-diazaspiro[3.4]octan-6-yl]pyridine-2-carbonitrile]: the Emax in assay [1] (setting [5]) is 0.1%; in assay [2] (setting [6]), 101%; in assay [3] (setting [6]), 101%; in assay [4] (setting [5]) it was 0%. The EC50 in assay [1] (agonist mode) and in assay [4] (agonist mode) was above 15100 nM throughout. Also, the results for the IC50 in assay [2] (antagonist mode) and in assay [3] (antagonist mode) were 1410 nM and 813 nM, respectively.

Regarding `CC(=O)N1CCc2cc(N3C(=S)N(c4cnc(C#N)c(C(F)(F)F)c4)C(=O)C34CCC4)ccc2C1` [Cpd 120, 5-(5-(2-acetyl-1,2,3,4-tetrahydroisoquinolin-6-yl)-8-oxo-6-thioxo-5,7-diazaspiro[3.4]octan-7-yl)-3-(trifluoromethyl)picolinonitrile], the EC50 in assay [1] (agonist mode) and in assay [4] (agonist mode) was above 15100 nM each time. Besides, the Emax in assay [1] (setting [7]) is 1.1%; in assay [2] (setting [8]) it was 100%; in assay [3] (setting [8]), 101%; in assay [4] (setting [7]), 0.2%. The IC50 was 200 nM in assay [2] (antagonist mode) and 339 nM in assay [3] (antagonist mode).

As for `N#Cc1ncc(N2C(=O)C3(CCC3)N(c3ccc(C(=O)NCC4CCNCC4)c(F)c3)C2=S)cc1C(F)(F)F` [Cpd 221, 4-[6-[6-cyano-5-(trifluoromethyl)-3-pyridyl]-5-oxo-7-thioxo-6,8-diazaspiro[3.4]octan-8-yl]-2-fluoro-N-(4-piperidylmethyl)benzamide], the Emax in assay [1] (setting [5]) is 0.1%; in assay [2] (setting [6]) it was 101%; in assay [3] (setting [6]) it was 100%; in assay [4] (setting [5]), -0.1%. In addition, the EC50 in assay [1] (agonist mode) and in assay [4] (agonist mode) was above 15100 nM each time. For the same molecule, the results for the IC50 in assay [2] (antagonist mode) and in assay [3] (antagonist mode) were 891 nM and 589 nM, respectively.

The values are drawn from patent US10981926B2 (Janssen Pharmaceutica NV, priority 2016, dated 2021).
